Tests used:
TRPM2 channels = molecular target: T1, TRPM2 channels (Homo sapiens, UniProt O94759); test: H2O2-evoked Ca2+ entry in cells overexpressing TRPM2; type: cell-based; settings: 10 μM compound, 1 mM H2O2, fura-2
T1 construct: expressed in transfected cells

[1] = test system: endogenous Ca2+ release signal; test: Endogenous Ca2+ release in non-induced (Tet-) TRPC5 HEK cells; type: cell-based, human; settings: 10 μM compound, no extracellular Ca2+
TRPC3 channels = molecular target: T2, TRPC3 channels (Homo sapiens, UniProt Q13507); test: OAG-evoked Ca2+ entry in cells overexpressing TRPC3; type: cell-based; settings: 10 μM compound, 50 μM OAG, fura-2
T2 construct: expressed in transfected cells
T2 sequence (Q13507 74-921 limits assumed): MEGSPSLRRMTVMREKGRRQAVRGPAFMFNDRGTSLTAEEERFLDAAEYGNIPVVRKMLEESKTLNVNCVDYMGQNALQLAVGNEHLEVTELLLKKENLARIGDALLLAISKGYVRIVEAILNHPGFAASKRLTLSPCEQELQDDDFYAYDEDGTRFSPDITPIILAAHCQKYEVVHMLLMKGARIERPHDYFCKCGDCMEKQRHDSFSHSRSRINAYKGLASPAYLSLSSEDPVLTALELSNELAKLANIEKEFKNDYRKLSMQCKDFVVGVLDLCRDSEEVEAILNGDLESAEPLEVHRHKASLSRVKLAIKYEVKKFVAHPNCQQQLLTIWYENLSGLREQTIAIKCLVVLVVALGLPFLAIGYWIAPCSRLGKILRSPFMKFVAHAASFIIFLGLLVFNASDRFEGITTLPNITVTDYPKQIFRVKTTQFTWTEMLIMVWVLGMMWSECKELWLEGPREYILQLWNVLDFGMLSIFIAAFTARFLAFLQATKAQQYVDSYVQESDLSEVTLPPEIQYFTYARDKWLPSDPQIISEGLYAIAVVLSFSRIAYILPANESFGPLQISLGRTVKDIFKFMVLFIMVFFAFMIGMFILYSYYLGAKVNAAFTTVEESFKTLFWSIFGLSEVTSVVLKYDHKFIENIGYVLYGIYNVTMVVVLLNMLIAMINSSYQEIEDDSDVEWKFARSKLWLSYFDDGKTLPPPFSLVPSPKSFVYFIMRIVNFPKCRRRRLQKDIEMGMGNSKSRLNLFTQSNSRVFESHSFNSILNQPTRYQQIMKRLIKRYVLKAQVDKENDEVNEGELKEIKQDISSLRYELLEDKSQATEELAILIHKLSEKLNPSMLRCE

human TRPC5 [2] = molecular target: T3, human TRPC5 (Homo sapiens, UniProt Q9UL62); test: Outside-out patch recordings from TRPC5 Tet+ cells; type: cell-based; settings: outside-out patch, (-)-Englerin A-activated TRPC5
T3 construct: expressed in transfected cells
T3 sequence (Q9UL62 1-973): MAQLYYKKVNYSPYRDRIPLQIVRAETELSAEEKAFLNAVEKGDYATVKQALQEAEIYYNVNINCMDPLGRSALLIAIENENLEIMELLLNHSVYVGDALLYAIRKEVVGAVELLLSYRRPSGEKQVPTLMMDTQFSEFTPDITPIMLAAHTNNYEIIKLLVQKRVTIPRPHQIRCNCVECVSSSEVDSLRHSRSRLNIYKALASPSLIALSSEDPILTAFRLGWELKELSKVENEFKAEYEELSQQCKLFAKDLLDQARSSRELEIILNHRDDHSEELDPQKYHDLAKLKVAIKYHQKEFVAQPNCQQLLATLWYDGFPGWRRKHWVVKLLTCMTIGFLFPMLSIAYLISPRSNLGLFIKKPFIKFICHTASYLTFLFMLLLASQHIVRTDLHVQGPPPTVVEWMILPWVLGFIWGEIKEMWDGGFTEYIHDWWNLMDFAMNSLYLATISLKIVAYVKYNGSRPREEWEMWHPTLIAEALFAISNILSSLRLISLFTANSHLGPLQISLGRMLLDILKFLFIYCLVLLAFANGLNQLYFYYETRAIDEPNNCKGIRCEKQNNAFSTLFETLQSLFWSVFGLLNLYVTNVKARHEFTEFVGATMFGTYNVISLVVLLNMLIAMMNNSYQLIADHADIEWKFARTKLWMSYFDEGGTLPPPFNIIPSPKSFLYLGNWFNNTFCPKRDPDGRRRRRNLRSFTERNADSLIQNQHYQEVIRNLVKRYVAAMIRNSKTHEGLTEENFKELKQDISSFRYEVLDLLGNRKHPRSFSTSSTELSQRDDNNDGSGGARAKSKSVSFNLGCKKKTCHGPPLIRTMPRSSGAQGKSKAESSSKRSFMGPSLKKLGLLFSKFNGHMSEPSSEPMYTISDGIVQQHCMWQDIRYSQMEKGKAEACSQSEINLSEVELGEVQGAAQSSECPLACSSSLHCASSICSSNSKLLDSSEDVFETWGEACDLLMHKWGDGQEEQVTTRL

human TRPC5 [3] = molecular target: T3, human TRPC5; test: S1P- or LPC-evoked Ca2+ entry in TRPC5 (Tet+) HEK 293 cells; type: cell-based; settings: 10 μM compound, fura-2
human TRPC5 [4] = molecular target: T3, human TRPC5; test: Gd3+-evoked Ca2+ entry in TRPC5-expressing (Tet+) HEK 293 cells; type: cell-based
TRPC4 = molecular target: T4, TRPC4 (Homo sapiens, UniProt Q9UBN4); test: Outside-out patch recordings from TRPC4 Tet+ cells stimulated by (-)-Englerin A; type: cell-based; settings: 5 μM compound, 100 nM (-)-Englerin A
T4 construct: expressed in transfected cells
T4 sequence (Q9UBN4 1-893 isoform Q9UBN4-2): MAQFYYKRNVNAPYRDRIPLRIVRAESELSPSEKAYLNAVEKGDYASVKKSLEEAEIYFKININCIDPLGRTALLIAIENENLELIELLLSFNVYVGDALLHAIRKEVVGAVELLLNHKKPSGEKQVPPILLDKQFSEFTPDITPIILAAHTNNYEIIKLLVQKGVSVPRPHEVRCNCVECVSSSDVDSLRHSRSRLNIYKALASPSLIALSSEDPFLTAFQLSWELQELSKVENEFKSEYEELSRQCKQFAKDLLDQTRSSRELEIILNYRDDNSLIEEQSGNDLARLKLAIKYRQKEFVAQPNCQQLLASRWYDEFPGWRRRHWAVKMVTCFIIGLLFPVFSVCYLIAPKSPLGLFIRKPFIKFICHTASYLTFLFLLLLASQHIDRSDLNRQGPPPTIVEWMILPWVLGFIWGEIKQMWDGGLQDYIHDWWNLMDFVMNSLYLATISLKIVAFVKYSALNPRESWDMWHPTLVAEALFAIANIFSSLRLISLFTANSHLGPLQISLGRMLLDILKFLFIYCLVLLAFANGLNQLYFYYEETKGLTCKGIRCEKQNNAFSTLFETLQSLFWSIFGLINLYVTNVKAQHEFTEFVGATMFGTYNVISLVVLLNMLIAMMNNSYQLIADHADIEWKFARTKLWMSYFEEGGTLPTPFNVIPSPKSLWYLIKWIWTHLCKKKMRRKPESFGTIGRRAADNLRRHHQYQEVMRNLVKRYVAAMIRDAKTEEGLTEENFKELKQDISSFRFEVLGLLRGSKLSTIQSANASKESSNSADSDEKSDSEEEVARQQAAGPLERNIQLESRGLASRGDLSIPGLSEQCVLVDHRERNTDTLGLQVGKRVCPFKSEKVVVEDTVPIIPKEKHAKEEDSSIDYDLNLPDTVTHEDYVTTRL

[5] = test system: endogenous Ca2+ entry mechanism; test: Ca2+ responses in control non-induced (Tet-) HEK cells with extracellular Ca2+; type: cell-based, human; settings: 10 μM compound
TRPV4 channels [6] = molecular target: T5, TRPV4 channels (Homo sapiens, UniProt Q9HBA0); test: 4alphaPDD-evoked Ca2+ entry in CHO K1 cells expressing TRPV4; type: cell-based; settings: 10 μM compound, 1 μM 4αPDD, fluo-4
T5 construct: expressed in transfected cells
T5 sequence (Q9HBA0 whole entry): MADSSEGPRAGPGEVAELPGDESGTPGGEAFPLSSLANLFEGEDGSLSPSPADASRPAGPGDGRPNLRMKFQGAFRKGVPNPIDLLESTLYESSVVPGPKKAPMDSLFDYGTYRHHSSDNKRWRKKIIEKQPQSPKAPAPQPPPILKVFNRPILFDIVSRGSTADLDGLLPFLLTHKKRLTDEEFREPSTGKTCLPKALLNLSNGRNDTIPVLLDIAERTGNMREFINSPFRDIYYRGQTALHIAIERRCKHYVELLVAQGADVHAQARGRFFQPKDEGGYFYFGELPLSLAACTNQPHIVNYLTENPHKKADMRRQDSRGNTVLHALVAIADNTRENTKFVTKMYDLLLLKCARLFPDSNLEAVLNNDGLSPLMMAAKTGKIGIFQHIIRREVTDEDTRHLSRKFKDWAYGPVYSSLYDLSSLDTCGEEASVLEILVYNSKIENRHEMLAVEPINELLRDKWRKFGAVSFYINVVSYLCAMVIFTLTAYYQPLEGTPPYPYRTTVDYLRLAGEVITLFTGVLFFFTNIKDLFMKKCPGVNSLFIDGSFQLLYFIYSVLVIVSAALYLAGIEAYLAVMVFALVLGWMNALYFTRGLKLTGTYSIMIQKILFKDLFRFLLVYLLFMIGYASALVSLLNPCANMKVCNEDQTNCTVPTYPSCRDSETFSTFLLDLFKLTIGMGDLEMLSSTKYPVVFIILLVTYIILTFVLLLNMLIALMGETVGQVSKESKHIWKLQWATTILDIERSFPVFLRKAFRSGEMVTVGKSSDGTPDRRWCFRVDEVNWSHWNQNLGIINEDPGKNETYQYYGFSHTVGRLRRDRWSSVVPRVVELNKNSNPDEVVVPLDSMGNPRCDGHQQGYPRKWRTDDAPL

[7] = molecular target: T6, TRPC1-TRPC5 heteromeric channels (Homo sapiens, UniProt P48995+Q9UL62); test: Whole-cell recordings of TRPC1-TRPC5 heteromeric channels stimulated by (-)-Englerin A; type: cell-based; settings: 5 μM compound, 100 nM (-)-Englerin A
T6 construct: expressed in transfected cells; host or cells: HEK 293-MSR, transient, Lipofectamine 2000
T6 sequence (P48995 whole entry, one chain of several): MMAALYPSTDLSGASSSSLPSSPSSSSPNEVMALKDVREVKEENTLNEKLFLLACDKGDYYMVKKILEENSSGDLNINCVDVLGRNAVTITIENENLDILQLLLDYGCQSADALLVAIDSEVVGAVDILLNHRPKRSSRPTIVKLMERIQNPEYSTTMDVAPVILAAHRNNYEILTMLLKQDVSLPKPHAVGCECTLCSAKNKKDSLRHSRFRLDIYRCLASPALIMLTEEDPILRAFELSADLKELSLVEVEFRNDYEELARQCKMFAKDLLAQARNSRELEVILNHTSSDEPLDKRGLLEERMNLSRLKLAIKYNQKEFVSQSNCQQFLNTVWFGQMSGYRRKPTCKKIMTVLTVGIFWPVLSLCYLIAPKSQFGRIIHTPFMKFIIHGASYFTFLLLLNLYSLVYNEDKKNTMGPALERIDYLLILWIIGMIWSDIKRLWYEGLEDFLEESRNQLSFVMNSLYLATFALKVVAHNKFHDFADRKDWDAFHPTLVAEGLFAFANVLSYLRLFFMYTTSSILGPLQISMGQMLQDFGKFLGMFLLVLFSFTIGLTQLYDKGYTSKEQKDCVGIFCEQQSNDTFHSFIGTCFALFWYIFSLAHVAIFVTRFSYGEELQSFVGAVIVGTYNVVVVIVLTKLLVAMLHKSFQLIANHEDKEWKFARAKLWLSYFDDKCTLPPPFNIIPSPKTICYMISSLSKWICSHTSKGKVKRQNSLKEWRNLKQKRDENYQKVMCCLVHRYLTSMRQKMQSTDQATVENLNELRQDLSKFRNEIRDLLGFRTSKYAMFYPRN

[8] = test system: GABA-evoked ionic currents; set-up: method as in Goutman et al., 2003; settings: ref Goutman et al., 2003; cited from earlier work
human TRPC5 [9] = molecular target: T3, human TRPC5; test: Whole-cell patch clamp of TRPC5-expressing (Tet+) HEK 293 cells; type: cell-based; settings: 10 μM compound
TRPV4 channels [10] = test system: TRPV4 channels; set-up: method as in Ma et al., 2012; settings: ref Ma et al., 2012; cited from earlier work
TRPC5 = test system: TRPC5; set-up: method as in Wong et al., 2010; settings: ref Wong et al., 2010; cited from earlier work
3T3-L1 cells = settings: ref Harmon and Harp, 2001; cited from earlier work

T1 sequence (O94759 whole entry): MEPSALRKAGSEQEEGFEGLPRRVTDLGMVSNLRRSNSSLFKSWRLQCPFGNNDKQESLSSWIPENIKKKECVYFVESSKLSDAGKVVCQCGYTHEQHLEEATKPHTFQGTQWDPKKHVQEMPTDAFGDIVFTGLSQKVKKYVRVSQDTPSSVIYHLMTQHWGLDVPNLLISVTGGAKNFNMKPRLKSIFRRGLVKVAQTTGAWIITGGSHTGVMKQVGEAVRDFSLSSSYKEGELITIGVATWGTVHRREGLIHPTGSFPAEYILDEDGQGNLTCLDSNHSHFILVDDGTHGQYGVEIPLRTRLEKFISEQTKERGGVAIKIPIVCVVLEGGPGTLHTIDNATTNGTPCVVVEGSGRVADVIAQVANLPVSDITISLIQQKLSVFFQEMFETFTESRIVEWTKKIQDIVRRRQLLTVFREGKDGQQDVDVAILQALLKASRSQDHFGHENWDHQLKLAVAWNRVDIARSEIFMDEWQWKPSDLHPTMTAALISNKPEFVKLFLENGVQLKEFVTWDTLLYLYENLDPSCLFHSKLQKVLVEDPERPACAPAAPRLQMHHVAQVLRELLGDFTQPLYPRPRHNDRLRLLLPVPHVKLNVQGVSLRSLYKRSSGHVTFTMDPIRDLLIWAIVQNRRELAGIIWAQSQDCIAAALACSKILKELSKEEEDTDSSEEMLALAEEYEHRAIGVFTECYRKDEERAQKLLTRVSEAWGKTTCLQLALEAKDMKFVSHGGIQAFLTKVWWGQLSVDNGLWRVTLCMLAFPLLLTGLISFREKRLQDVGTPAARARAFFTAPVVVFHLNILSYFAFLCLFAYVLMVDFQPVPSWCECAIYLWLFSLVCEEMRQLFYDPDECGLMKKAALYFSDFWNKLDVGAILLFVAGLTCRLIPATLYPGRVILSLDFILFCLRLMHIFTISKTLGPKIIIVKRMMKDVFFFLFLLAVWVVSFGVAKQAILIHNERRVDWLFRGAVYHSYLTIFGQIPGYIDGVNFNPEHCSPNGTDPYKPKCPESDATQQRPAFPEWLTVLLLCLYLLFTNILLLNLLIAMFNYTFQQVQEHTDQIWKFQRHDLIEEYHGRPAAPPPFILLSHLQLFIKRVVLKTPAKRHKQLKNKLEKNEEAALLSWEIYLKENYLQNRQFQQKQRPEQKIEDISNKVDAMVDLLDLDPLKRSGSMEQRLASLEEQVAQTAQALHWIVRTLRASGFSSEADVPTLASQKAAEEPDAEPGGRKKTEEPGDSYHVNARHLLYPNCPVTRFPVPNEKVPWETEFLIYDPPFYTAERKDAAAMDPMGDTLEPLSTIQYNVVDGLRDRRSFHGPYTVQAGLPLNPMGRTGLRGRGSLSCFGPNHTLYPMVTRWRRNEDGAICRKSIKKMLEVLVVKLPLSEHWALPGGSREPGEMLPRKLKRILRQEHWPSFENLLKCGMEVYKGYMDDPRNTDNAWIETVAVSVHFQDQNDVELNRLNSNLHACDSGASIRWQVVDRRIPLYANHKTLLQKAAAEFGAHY

With `O=c1c(O)c(-c2ccccc2Br)oc2cc(O)cc(O)c12` [AM12, 3,5,7‐trihydroxy‐2‐(2‐bromophenyl)‐4H‐chromen‐4‐one] the “effect on TRPM2 channels” value (TRPM2 channels) was “no effect”, the “effect on Ca2+ release evoked by thapsigargin” value ([1]; 3 μM thapsigargin) was “no effect” and the “effect on Ca2+ release evoked by ATP” value ([1]; 100 μM ATP) was “no effect”. The “effect on Ca2+ entry through TRPC3 channels” value (TRPC3 channels) was “did not reach statistical significance”, the recovery on washout (human TRPC5 [2]) was “fast recovery on washout” and the “effect on S1P-evoked Ca2+ entry” value (human TRPC5 [3]; 5 μM S1P) was “stimulated rather than inhibited”. The “effect on LPC-evoked Ca2+ entry” value (human TRPC5 [3]; 10 μM LPC) was “enhanced”, the IC50 (human TRPC5 [4]; TRPC5 (Tet+) HEK 293, Gd3+, fura-2, read-out: IC50, inhibition of Gd3+-evoked Ca2+ entry) was 280 nM and the “average inhibition of TRPC4 current” value (TRPC4) was ~ 80%. For the same compound, the “effect on S1P and LPC responses in Tet- cells” value [5] was “no effects”, the “effect on ATP response in the presence of extracellular Ca2+” value ([5]; 100 μM ATP) was “enhanced” and the “effect on Ca2+ entry through TRPV4 channels” value (TRPV4 channels [6]) was “significant stimulatory effect”. The “inhibition of TRPC1-TRPC5 heteromeric channel current” value [7] was ~ 20%.

For `O=c1cc(-c2ccc(O)cc2)oc2cc(O)cc(O)c12` [Apigenin], the “effect on GABA-evoked ionic currents” value [8] is listed as “inhibited”, the “effect on Gd3+-evoked Ca2+ entry (natural flavonoid screen)” value (human TRPC5 [4]; 10 μM, 50 μM Gd3+, XRhod-1) is listed as “stimulatory effect” and the “effect on TRPC5-mediated whole-cell current (no other activator)” value (human TRPC5 [9]) is listed as “stimulate”. The “effect on TRPV4 channels” value (TRPV4 channels [10]) was “stimulating”.

In the case of `O=c1c(-c2ccc(O)cc2)coc2cc(O)cc(O)c12` [genistein], the “effect on TRPC5” value (TRPC5) is listed as “stimulated” and the “effect on 3T3-L1 cell proliferation and differentiation” value (3T3-L1 cells) is listed as “inhibited proliferation and subsequent differentiation”.

Source: paper PMC4728423, “Natural and synthetic flavonoid modulation of TRPC5 channels” (British Journal of Pharmacology, 2016)
